# ChEMBL document CHEMBL5614415, “Recent advances and challenges of revolutionizing drug-resistant tuberculosis treatment” (Eur J Med Chem, 2024)
# Test system: Mycobacterium tuberculosis variant bovis
# Assay: Antimycobacterial activity against Mycobacterium bovis BCG ATCC 35734 assessed as bacterial growth inhibition incubated for 15 days by resazurin based reduction assay
# Type: functional
# Conditions: BCG ATCC 35734, 360 h, time 15 day
smiles,measurement,value
COc1cc([C@](O)(CCN(C)C)[C@@H](c2cc3cc(Br)ccc3nc2OC)c2cccc(OC)c2F)cc(OC)n1 [TBAJ-587],MIC50,< 6 ng/mL
